Values joined by “and” are separate entries in the source; they are usually repeats but may differ in a detail not shown here. Identical values can stand only once. Like-named read-outs stand apart in the source and are kept apart here.
What was measured:
Rlig1-AMP = molecular target: T1, Rlig1-AMP (Homo sapiens, UniProt Q8N999); assay: FRET-based high-throughput screening of inhibitors for Rlig1-AMP; type: biochemical; details: HTS hits; for 1-D Distance: difference of raw data w/o and w enzyme; for Raw data [w Enyzm]: with enzyme; for Raw data [w/o Enzym]: without enzyme
T1 construct: made in house; host or cells: E. coli BL21 (DE3), pET15b-Rlig1

c-Myc-Max = tested on: c-Myc-Max; parameters: method as in MedChemExpress; details: c-Myc-Max dimerization; ref MedChemExpress; cited from earlier work
B-Raf kinase = molecular target: B-Raf kinase; parameters: method as in MedChemExpress; details: ref MedChemExpress; cited from earlier work
G9a = tested on: G9a; parameters: method as in MedChemExpress; details: ref MedChemExpress; cited from earlier work
GLP = tested on: GLP; parameters: method as in MedChemExpress; details: ref MedChemExpress; cited from earlier work
HCT-116 = tested on: HCT-116; parameters: method as in MedChemExpress; details: ref MedChemExpress, read-out: IC50, Pol I-mediated rRNA synthesis; cited from earlier work
A375 = tested on: A375; parameters: method as in MedChemExpress; details: ref MedChemExpress, read-out: IC50, Pol I-mediated rRNA synthesis; cited from earlier work
MIA PaCa-2 cells = tested on: MIA PaCa-2 cells; parameters: method as in MedChemExpress; details: ref MedChemExpress, read-out: IC50, Pol I-mediated rRNA synthesis; cited from earlier work
Pol II = tested on: Pol II; parameters: method as in MedChemExpress; details: ref MedChemExpress; cited from earlier work
NO production = tested on: NO production; parameters: method as in MedChemExpress; details: ref MedChemExpress; cited from earlier work
[1] = DMSO; ultrasonic/warming; ref MedChemExpress; cited from earlier work
PU.1 = tested on: PU.1; parameters: method as in MedChemExpress; details: in vitro; ref MedChemExpress; read-out: IC50, PU.1 binding; cited from earlier work
λB = molecular target: λB; parameters: method as in MedChemExpress; details: in vitro; ref MedChemExpress; read-out: KD, DB1976-λB affinity; cited from earlier work
[2] = ref MedChemExpress, cited from earlier work
[3] = tested on: transcription factor PU.1; parameters: method as in MedChemExpress; details: ref MedChemExpress; cited from earlier work
ERβ = tested on: ERβ; parameters: method as in MedChemExpress; details: ref MedChemExpress; read-out: IC50, binding to ERβ; cited from earlier work
EGFR = tested on: EGFR; parameters: method as in MedChemExpress; details: ref MedChemExpress; cited from earlier work
ALK2 = tested on: ALK2; parameters: method as in MedChemExpress; details: ref MedChemExpress; cited from earlier work
tau protein = molecular target: tau protein; parameters: method as in MedChemExpress; details: tau protein aggregation; ref MedChemExpress; cited from earlier work
Shp1 (SH-PTP1) = tested on: Shp1 (SH-PTP1); parameters: method as in MedChemExpress; details: ref MedChemExpress; cited from earlier work
BCL-2 = molecular target: BCL-2; parameters: method as in MedChemExpress; details: ref MedChemExpress; cited from earlier work
JAK1 = tested on: JAK1; parameters: method as in MedChemExpress; details: ref MedChemExpress; cited from earlier work
JAK2 = tested on: JAK2; parameters: method as in MedChemExpress; details: ref MedChemExpress; cited from earlier work
JAK3 = tested on: JAK3; parameters: method as in MedChemExpress; details: ref MedChemExpress; cited from earlier work
Tyk2 = tested on: Tyk2; parameters: method as in MedChemExpress; details: ref MedChemExpress; cited from earlier work
NMDA receptor = molecular target: NMDA receptor; parameters: method as in MedChemExpress; details: ref MedChemExpress; cited from earlier work
CDK7 = tested on: CDK7; parameters: method as in MedChemExpress; details: ref MedChemExpress; cited from earlier work
TrKA = tested on: TrKA; parameters: method as in MedChemExpress; details: ref MedChemExpress; read-out: IC50, TrKA phosphorylation; cited from earlier work
ErbB2 = tested on: ErbB2; parameters: method as in MedChemExpress; details: ref MedChemExpress, cited from earlier work
chymotrypsin = molecular target: chymotrypsin; parameters: method as in MedChemExpress; details: ref MedChemExpress; cited from earlier work
[4] = normalised value of 1-D Distance

T1 sequence (Q8N999 whole entry): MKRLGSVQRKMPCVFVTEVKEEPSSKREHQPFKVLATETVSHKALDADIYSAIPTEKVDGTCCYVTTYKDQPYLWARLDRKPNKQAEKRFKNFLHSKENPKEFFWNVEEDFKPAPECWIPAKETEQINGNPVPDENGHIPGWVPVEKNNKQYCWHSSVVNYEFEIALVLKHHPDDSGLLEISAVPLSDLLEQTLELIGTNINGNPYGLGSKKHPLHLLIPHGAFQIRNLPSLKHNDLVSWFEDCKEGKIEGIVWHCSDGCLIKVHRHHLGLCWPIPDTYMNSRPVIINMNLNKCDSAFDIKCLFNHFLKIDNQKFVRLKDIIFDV

O=[N+]([O-])c1ccc(Nc2ccccc2-c2ccccc2)c2nonc12 [10074-G5]
1-D Distance (Rlig1-AMP): 758 | 1-D Distance.npi (Rlig1-AMP; normalized value (npi)): 91.4368 | Raw data [w Enyzm] (Rlig1-AMP): 1415 | Raw data [w/o Enzym] (Rlig1-AMP): 2173 | IC50 (c-Myc-Max): 146000 nM

CN(C)Cc1ccc(-c2cnn3c(-c4cccc(NC(=O)c5cccc(C(F)(F)F)c5)c4)ccnc23)cc1 [B-Raf IN 1]
1-D Distance (Rlig1-AMP): 563 | 1-D Distance.npi (Rlig1-AMP; normalized value (npi)): 95.4397 | Raw data [w Enyzm] (Rlig1-AMP): 7195 | Raw data [w/o Enzym] (Rlig1-AMP): 7758 | IC50 (B-Raf kinase): […]

COc1cc2c(NC3CCN(C)CC3)cc(-c3ccc(C)o3)nc2cc1OCCCN1CCCC1 [CM-272]
1-D Distance (Rlig1-AMP): 449 | 1-D Distance.npi (Rlig1-AMP; normalized value (npi)): 99.0872 | Raw data [w Enyzm] (Rlig1-AMP): 6004 | Raw data [w/o Enzym] (Rlig1-AMP): 6453 | IC50 (G9a): […] | IC50 (GLP): 2 nM

Cc1cnc(CNC(=O)c2c(=O)c3ccc(N4CCCN(C)CC4)nc3n3c2sc2ccccc23)cn1.Cl.Cl [CX-5461 dihydrochloride]
1-D Distance (Rlig1-AMP): 1694 | 1-D Distance.npi (Rlig1-AMP; [4]): 72.2021 | Raw data [w Enyzm] (Rlig1-AMP): 7215 | Raw data [w/o Enzym] (Rlig1-AMP): 8909 | IC50 (HCT-116): 142 nM | IC50 (A375): 113 nM | IC50 (MIA PaCa-2 cells): 54 nM | IC50 (Pol II): ≥ 25000 nM

CC(/C=C/C=C(\C)C(=O)O[C@@H]1O[C@H](CO)[C@@H](O)[C@H](O)[C@H]1O)=C\C=C\C=C(C)\C=C\C=C(/C)C(=O)O[C@@H]1O[C@H](CO[C@@H]2O[C@H](CO)[C@@H](O)[C@H](O)[C@H]2O)[C@@H](O)[C@H](O)[C@H]1O [Crocin II]
1-D Distance (Rlig1-AMP): 1772 | 1-D Distance.npi (Rlig1-AMP; [4]): 72.9439 | Raw data [w Enyzm] (Rlig1-AMP): 3357 | Raw data [w/o Enzym] (Rlig1-AMP): 5129 | IC50 (NO production): 31100 nM | solubility, DMSO [1]: 25 mg/mL and 30.68 mM

Cl.Cl.N=C(N)c1ccc2nc(-c3ccc(-c4nc5ccc(C(=N)N)cc5[nH]4)[se]3)[nH]c2c1 [DB1976 (dihydrochloride)]
1-D Distance (Rlig1-AMP): 102 | 1-D Distance.npi (Rlig1-AMP; normalized value (npi)): 105.279 | Raw data [w Enyzm] (Rlig1-AMP): 4805 | Raw data [w/o Enzym] (Rlig1-AMP): 4703 | IC50 (PU.1): 10 nM | Kd (λB): 12 nM | solubility ([2]; DMSO): 62.5 mg/mL and 120.13 mM | solubility ([2]; H2O): 18.33 mg/mL and 35.23 mM

CC(C)N=C(N)c1ccc2nc(-c3ccc(OCc4cccc(COc5ccc(-c6nc7ccc(C(N)=NC(C)C)cc7[nH]6)cc5)c4F)cc3)[nH]c2c1 [DB2313]
1-D Distance (Rlig1-AMP): 699 | 1-D Distance.npi (Rlig1-AMP; [4]): 88.7864 | Raw data [w Enyzm] (Rlig1-AMP): 5551 | Raw data [w/o Enzym] (Rlig1-AMP): 4852 | PU.1 inhibitor with an apoptosis of [3]: DB2313 is a potent transcription factor PU.1 inhibitor with an apoptosis of 14 nM. DB2313 disrupts the interaction of PU.1 with target gene promoters. DB2313 induces apoptosis of acute myeloid leukemia (AML) cells, and has anticancer effects[1].

OC[C@H]1O[C@@H](Oc2cc3c(O)cc(O)cc3[o+]c2-c2cc(O)c(O)c(O)c2)[C@H](O)[C@@H](O)[C@@H]1O.[Cl-] [Delphinidin 3-glucoside (chloride)]
1-D Distance (Rlig1-AMP): 1749 | 1-D Distance.npi (Rlig1-AMP; [4]): 73.356 | Raw data [w Enyzm] (Rlig1-AMP): 3316 | Raw data [w/o Enzym] (Rlig1-AMP): 5065 | IC50 (ERβ): 9700 nM | IC50 (EGFR): 2370 nM

c1cc(-c2cnn3cc(-c4ccc(N5CCNCC5)cc4)cnc23)c2cccnc2c1 [LDN-212854]
1-D Distance (Rlig1-AMP): 1181 | 1-D Distance.npi (Rlig1-AMP; normalized value (npi)): 85.2649 | Raw data [w Enyzm] (Rlig1-AMP): 7408 | Raw data [w/o Enzym] (Rlig1-AMP): 8589 | IC50 (ALK2): 1.3 nM | solubility ([2]; DMSO): ≥ 30 mg/mL and ≥ 73.80 mM

CN(C)c1ccc2c(c1)Sc1cc(N(C)C)ccc1N2.CS(=O)(=O)O.CS(=O)(=O)O [Leucomethylene blue (mesylate)]
1-D Distance (Rlig1-AMP): 1844 | 1-D Distance.npi (Rlig1-AMP; normalized value (npi)): 72.1191 | Raw data [w Enyzm] (Rlig1-AMP): 4383 | Raw data [w/o Enzym] (Rlig1-AMP): 6227 | Ki (tau protein): 120 nM

O=S(=O)(O)c1ccc2cc(N=Nc3cc(S(=O)(=O)O)c4cccnc4c3O)ccc2c1 [NSC-87877]
1-D Distance (Rlig1-AMP): 982 | 1-D Distance.npi (Rlig1-AMP; normalized value (npi)): 87.5142 | Raw data [w Enyzm] (Rlig1-AMP): 1020 | IC50 (Shp1 (SH-PTP1)): 355 nM | solubility ([2]; DMSO): 25 mg/mL and 54.41 mM

COC1=CC(c2cc3ccccc3[nH]2)=N/C1=C\c1[nH]c(C)cc1C.CS(=O)(=O)O [Obatoclax (Mesylate)]
1-D Distance (Rlig1-AMP): 702 | 1-D Distance.npi (Rlig1-AMP; normalized value (npi)): 94.4219 | Raw data [w Enyzm] (Rlig1-AMP): 1010 | Raw data [w/o Enzym] (Rlig1-AMP): 1712 | Ki (BCL-2): 220 nM

NC(=O)c1cnc2[nH]ccc2c1N[C@@H]1[C@@H]2CC3C[C@H]1C[C@@](O)(C3)C2 [Peficitinib]
1-D Distance (Rlig1-AMP): 1954 | Raw data [w Enyzm] (Rlig1-AMP): 8816 | Raw data [w/o Enzym] (Rlig1-AMP): 10770 | IC50 (JAK1): 3.9 nM | IC50 (JAK2): 5 nM | IC50 (JAK3): […] | IC50 (Tyk2): 4.8 nM

N[C@@H](Cc1cc(CP(=O)(O)O)cc(-c2ccccc2Cl)c1)C(=O)O [SDZ 220-581]
1-D Distance (Rlig1-AMP): 1679 | 1-D Distance.npi (Rlig1-AMP; normalized value (npi)): 76.8207 | Raw data [w Enyzm] (Rlig1-AMP): 24871 | Raw data [w/o Enzym] (Rlig1-AMP): 26550 | pKi (NMDA receptor): SDZ 220-581 is an orally active, potent, competitive NMDA receptor antagonist with pKi value of 7.7[1]. | solubility ([2]; DMSO): 8.57 mg/mL and 23.18 mM

CN(C)C/C=C/C(=O)Nc1ccc(C(=O)Nc2cccc(Nc3ncc(Cl)c(-c4c[nH]c5ccccc45)n3)c2)cc1.Cl [THZ1 (Hydrochloride)]
1-D Distance (Rlig1-AMP): 289 | 1-D Distance.npi (Rlig1-AMP; normalized value (npi)): 99.9172 | Raw data [w Enyzm] (Rlig1-AMP): 6030 | Raw data [w/o Enzym] (Rlig1-AMP): 5741 | IC50 (CDK7): 3.2 nM

CC(C)(C)c1cc(/C=C(\C#N)C(N)=S)cc(C(C)(C)C)c1O [Tyrphostin AG 879]
1-D Distance (Rlig1-AMP): 1883 | Raw data [w Enyzm] (Rlig1-AMP): 2204 | Raw data [w/o Enzym] (Rlig1-AMP): 4087 | IC50 (TrKA): 10000 nM | IC50 (ErbB2; ErbB2): 1000 nM | selectivity to ErbB2 than EGFR (ErbB2; ErbB2 vs EGFR): ≥ 500 fold

Aprotinin
1-D Distance (Rlig1-AMP): 1367 | 1-D Distance.npi (Rlig1-AMP; [4]): 82.3934 | Raw data [w Enyzm] (Rlig1-AMP): 37995 | Raw data [w/o Enzym] (Rlig1-AMP): 39362 | Ki (chymotrypsin): 9 nM

Reference: publication PMC11747885, “Potent inhibitors of the human RNA ligase Rlig1 highlights its role in RNA integrity maintenance under oxidative cellular stress” (Chemical Science, 2025)
